Test results published in US4578489A (priority 1982, dated 1986).
Like-named read-outs stand apart in the source and are kept apart here.

Tests used:
[1] = tested on: Alcaligenes denitrificans; experiment: Minimum inhibitory concentration against bacteria, strain E; format: cell-based; conditions: 24 hours at 30° C.; tested at 100 and 300 mg/liter
How it was run: (§1)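 Read-out: visual turbidity after 24 hours at 30° C. in a shaking waterbath. Bacteria from overnight Caso peptone cultures, diluted 1/1000 twice (saline, then broth), were exposed to compound at 100 or 300 mg/liter.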

[2] = tested on: Aureobasidium pullulans; experiment: Minimum inhibitory concentration against fungi, agar incorporation test, strain R; format: cell-based; conditions: malt extract/agar
How it was run: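 Compounds incorporated in malt extract agar at final 2, 5, 10, 50 and 100 mg/liter. Agar inoculated dropwise with traces of fungus. Value is the concentration (mg/liter) needed to inhibit growth.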

[3] = tested on: Aspergillus phoenicis; experiment: Minimum inhibitory concentration against fungi, agar incorporation test, strain L; format: cell-based; conditions: malt extract/agar
How it was run: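 Agar incorporation test in malt extract agar with compound at final 2, 5, 10, 50 and 100 mg/liter, inoculated dropwise with fungus; value is concentration (mg/liter) inhibiting growth.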

[4] = tested on: Chaetomium globosum; experiment: Minimum inhibitory concentration against fungi, agar incorporation test, strain S; format: cell-based; conditions: malt extract/agar
How it was run: (§2)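 First, compound is blended into malt extract agar (final 2, 5, 10, 50 or 100 mg/liter). Next, traces of fungus are applied dropwise. The MIC is then taken as the concentration needed to inhibit growth.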

[5] = tested on: Alternaria alternata; experiment: Minimum inhibitory concentration against fungi, agar incorporation test, strain N; format: cell-based; conditions: malt extract/agar
How it was run: as §2

[6] = tested on: Enterobacter aerogenes; experiment: Minimum inhibitory concentration against bacteria, strain C; format: cell-based; conditions: 24 hours at 30° C.; tested at 100 and 300 mg/liter
How it was run: as §1

[7] = tested on: mixed culture of bacteria; format: cell-based; parameters: key: +: growth, no destruction; (+): growth less than that of control (>10 colonies), slight destruction; (-): slight growth (1-10 colonies); -: no growth, destruction
[8] = tested on: Cladosporium cladosporioides; experiment: Minimum inhibitory concentration against fungi, agar incorporation test, strain O; format: cell-based; conditions: malt extract/agar
How it was run: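 Compounds incorporated into malt extract agar at final concentrations of 2, 5, 10, 50 and 100 mg/liter, with fungal traces added dropwise. Value is the concentration (mg/liter) required to inhibit fungal growth.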

[9] = tested on: Proteus vulgaris; experiment: Minimum inhibitory concentration against bacteria, strain A; format: cell-based; conditions: 24 hours at 30° C.; tested at 100 and 300 mg/liter
How it was run: as §1

[10] = tested on: Chlorella vulgaris; experiment: Action against algae: Chlorella vulgaris; format: cell-based; parameters: key: --: no growth on the agar, 3 ppm have destroyed the algae in 6 hours; conditions: 3 mg/liter
How it was run: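 14-day cultures diluted 1/200 in nutrient medium received compound at 3 mg/liter final. After 6 h, samples were spotted on algae/agar for algicidal action; growth inhibition in medium and killing on agar assessed visually after 14 days under 14 h light/10 h dark.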

[11] = tested on: Pseudomonas aeruginosa; experiment: Minimum inhibitory concentration against bacteria, strain B; format: cell-based; conditions: 24 hours at 30° C.; tested at 100 and 300 mg/liter
How it was run: as §1

[12] = tested on: Bacillus subtilis; experiment: Minimum inhibitory concentration against bacteria, strain F; format: cell-based; conditions: 24 hours at 30° C.; tested at 100 and 300 mg/liter
How it was run: as §1

[13] = tested on: Aspergillus niger; experiment: Minimum inhibitory concentration against fungi, agar incorporation test, strain K; format: cell-based; conditions: malt extract/agar
How it was run: as §2

[14] = tested on: Serratia marcencens; experiment: Minimum inhibitory concentration against bacteria, strain D; format: cell-based; conditions: 24 hours at 30° C.; tested at 100 and 300 mg/liter
How it was run: as §1

[15] = tested on: Penicillium funiculosum; experiment: Minimum inhibitory concentration against fungi, agar incorporation test, strain M; format: cell-based; conditions: malt extract/agar
How it was run: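 Compounds incorporated into malt extract agar at final 2, 5, 10, 50 and 100 mg/liter, then inoculated dropwise with fungus. Value is the concentration (mg/liter) inhibiting growth.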

[16] = tested on: Enteromorpha intestinalis; experiment: Action against Enteromorpha intestinalis: inhibitory concentration (MIC); format: in vivo; conditions: seawater containing biocide for entire test; concentration tested 0.5 mg/liter
Protocol: (§3) The action against the green alga Enteromorpha, which is the most important in seawter fouling, is investigated in sterile-filtered seawater containing an Erd-Schreiber solution. This solution is composed of a nutrient extract, phosphate and nitrate. The incubation of Enteromorpha intestinalis is carried out in a light thermostat at 18° C. under an alternation of 14 hours of light and 10 hours of darkness.
For determining the inhibitory concentration (MIC), the algae are kept in seawater containing biocide for the entire duration of the test (concentration tested: 0.5 mg/liter).

[17] = tested on: Enteromorpha intestinalis; experiment: Action against Enteromorpha intestinalis: destruction (minimum killing concentration); format: in vivo; conditions: 4 hours in seawater, then 6-8 weeks in fresh seawater
Protocol: as §3
The algae which have been cultured in this way are exposed to the products under investigation for a short time (4 hours) in seawater. The minimum killing concentration (MKC) is determined by taking the algae out of the seawater containing a specific quantity of algicide, after the treatment time in the latter, washing the algae and investigating growth or mortality after incubation in fresh seawater for a further period of 6-8 weeks.
The minimum killing concentration (MKC) indicates the amount of substance required to cause such damage to the algae within a specific time that they can no longer recover in fresh seawater and die out.

[18] = tested on: Artemia salina; experiment: Action against Artemia salina nauplii; format: in vivo; parameters: key: 0: no change; 1: slight change; 1-2: animals are attacked; 2: animals are strongly attacked; 2-3: animals are nearly all dead; 3: animals are all dead
Protocol: The eggs, which are available commercially, are caused to hatch by vigorous aeration. When 2-3 days old, the nauplii are exposed to the products at various concentrations (concentrations tested: 2.5; 1; 0.5 and 0.25 mg/liter) in synthetic seawater, and are observed over a prolonged period of time.

[19] = tested on: Candida albicans; experiment: Minimum inhibitory concentration against fungi, agar incorporation test, strain P; format: cell-based; conditions: malt extract/agar
How it was run: as §2

[20] = tested on: Endomyces geotrichum; experiment: Minimum inhibitory concentration against fungi, agar incorporation test, strain Q; format: cell-based; conditions: malt extract/agar
How it was run: as §2

SMILES: CCCCCCCCCCCCCCCC[n+]1ccccc1.CCC[CH2][Sn-]([Cl])([Cl])([CH2]CCC)[CH2]CCC [Example 7, Pyridine-Nhexadecyl / Tributyldichloro]
- MIC against bacteria, strain E [1]: 100 µg/mL
- MIC against fungi, strain R [2]: 2 µg/mL
- MIC against fungi, strain L [3]: 10 µg/mL
- MIC against fungi, strain S [4]: 2 µg/mL
- MIC against fungi, strain N [5]: 5 µg/mL
- MIC against bacteria, strain C [6]: 100 µg/mL
- Growth (destruction of a mixed culture of bacteria) ([7]; 5 mg/l, culture diluted 1/1000 in Tyrode): +
- Growth (destruction of a mixed culture of bacteria) ([7]; 5 mg/l, culture diluted 1/10000 in Tyrode): +
- Growth (destruction of a mixed culture of bacteria) ([7]; 10 mg/l, culture diluted 1/1000 in Tyrode): +
- Growth (destruction of a mixed culture of bacteria) ([7]; 10 mg/l, culture diluted 1/10000 in Tyrode): (+) (growth less than that of control (>10 colonies), slight destruction)
- Growth (destruction of a mixed culture of bacteria) ([7]; 30 mg/l, culture diluted 1/1000 in Tyrode): (+) (growth less than that of control (>10 colonies), slight destruction)
- Growth (destruction of a mixed culture of bacteria) ([7]; 30 mg/l, culture diluted 1/10000 in Tyrode): (-) (slight growth (1-10 colonies))
- Growth (destruction of a mixed culture of bacteria) ([7]; 60 mg/l, culture diluted 1/1000 in Tyrode): -
- Growth (destruction of a mixed culture of bacteria) ([7]; 60 mg/l, culture diluted 1/10000 in Tyrode): -
- Growth (destruction of a mixed culture of bacteria) ([7]; 100 mg/l, culture diluted 1/1000 in Tyrode): -
- Growth (destruction of a mixed culture of bacteria) ([7]; 100 mg/l, culture diluted 1/10000 in Tyrode): -
- MIC against fungi, strain O [8]: 2 µg/mL
- MIC against bacteria, strain A [9]: 100 µg/mL
- Growth on the agar (algae-destroying action) ([10]; 6 hours exposure, 14 days incubation): --
- Growth in the medium (growth inhibition) ([10]; 14 days): --
- MIC against bacteria, strain B [11]: 100 µg/mL
- MIC against bacteria, strain F [12]: 100 µg/mL
- MIC against fungi, strain K [13]: 2 µg/mL
- MIC against bacteria, strain D [14]: 100 µg/mL
- MIC against fungi, strain M [15]: 10 µg/mL
- MIC [16]: 0.5 µg/mL
- Destruction, 5 mg/liter [17]: yes
- Action against Artemia salina ([18]; 0,5 mg/l, 6 hours): 1-2
- Action against Artemia salina ([18]; 0,5 mg/l, 24 hours): 2
- Action against Artemia salina ([18]; 0,5 mg/l, 48 hours): 3
- Action against Artemia salina ([18]; 0,25 mg/l, 6 hours): 0-1
- Action against Artemia salina ([18]; 0,25 mg/l, 24 hours): 2
- Action against Artemia salina ([18]; 0,25 mg/l, 48 hours): 2-3
- Action against Artemia salina ([18]; 1 mg/l, 6 hours): 2
- Action against Artemia salina ([18]; 1 mg/l, 24 hours): 3
- Action against Artemia salina ([18]; 1 mg/l, 48 hours): 3
- Action against Artemia salina ([18]; 2,5 mg/l, 6 hours): 2-3
- Action against Artemia salina ([18]; 2,5 mg/l, 24 hours): 3
- Action against Artemia salina ([18]; 2,5 mg/l, 48 hours): 3
- MIC against fungi, strain P [19]: 5 µg/mL
- MIC against fungi, strain Q [20]: 5 µg/mL
